For assay [1], the system named is Aspergillus niger ATCC 16404 spores. The assay is described as follows: Sporicidal effect of test compounds and preservatives in a cosmetic cream. The note with it: for Enhancing effect in the cosmetic cream in presence of phenoxyethanol: 0.2% test compound with phenoxyethanol. In kind it is cell-based. The protocol: A cosmetic cream (pH 5.5) for application to the human skin is formulated as follows (in % w/w): […]
Glyceryl-monostearate, Sweet almond oil, Cetyl-stearyl-alcohol and Glyceryl dilaurate are melted at 80° C. Xanthan gum is dispersed into glycerine. Arginine is dissolved in water and heated to 75° C. The Xanthan gum-glycerin suspension is added to the heated water phase, the heated oil phase is added and the suspension is stirred at 300 rpm for 10 min whilst being cooled down slowly. Finally, a homogeneous emulsion is made with a high speed homogenizer at 5000 rpm.
Test samples of cream contain different amounts of preservatives and/or preservative enhancer. The preservative and preservative enhancer is added to an aliquot of 10 g of the cream in 50 ml tubes to a concentration (w/w) of 0.1-0.5% as shown in the table below. After addition of the preservative/preservative enhancer, the cream is thoroughly mixed to achieve a homogeneous distribution.
After 1-3 days of equilibration of the cream (storage at room temperature to achieve a homogenous partitioning of compounds between oil and water phase), to each sample 100 μl of a spore suspension of Aspergillus niger ATCC 16404 containing 3×10^7 spores/ml (prepared as described in example 1) is added. After regular test intervals, samples of 1 g cream are removed and added to 20 ml of a neutralizer solution containing 0.2% lecithin, 2% Tween 80 and 0.5% NaCl. These dilutions are vigorously shaken for 10 min until the cream is dissolved, and then aliquots of this solution are spread plated on potato dextrose agar containing 0.2% Tween 80. After 48 h to 72 h the number of surviving colony forming units (and therefore surviving spores) are counted.
The sporidical effect in cream (prepared as described in example 2) is compared when using the test compounds alone or in combination with phenoxyethanol, benzyl alcohol or 2-Phenylethanol.
The experiments described in example 2-4 are performed with varying concentrations of test compound and preservative as indicated in Table 5.

Assay [2] has the same test system. Description: Sporicidal effect of test compounds in water. In kind it is cell-based. The note with it: for Reduction factor / Spores/ml: 0.1% test compound in water; for Reduction factor: after 7 days, count of negative control divided by count of test compound; for Spores/ml: spore count after 7 days; for Sporicidal effect (reduction of spore counts) in water: test compound alone in water at 0.1%. The method, then: Aspergillus niger ATCC 16404 spores are added to water to obtain a density of 3×10^5 spores/ml. In order to prepare the spores, the test strain is grown for 5 days on potato dextrose agar at room temperature. The spores are harvested with a solution containing 0.1% Tween 80, peptone 0.1% and NaCl 0.85% and the spore concentration is adjusted to the density indicated above.
Test compounds are dissolved in dipropyleneglycol to a concentration of 20%.
These stock solutions are added to 10 ml aliquots of the spore suspension to obtain a final concentration of the test compounds of 0.1%. The sporicidal effect is shown by a reduction of spore counts after 7 days.
The reduction factor is determined as follows. Aliquots of the above prepared suspension of microorganisms (here: spore suspension prepared as described above) are plated on a suitable agar medium (see above) and the developing colonies are counted both for samples with test compound and for a negative probe (water). The count of the negative control is divided by the count of the test compound and thereby the reduction factor is determined. A negative control (water) accordingly has a reduction factor of 1 (no effect on the microorganism).

Where [3] appears, read: test compound (0.1% where given) with Phenoxyethanol 0.5% (Table 3).
Where [4] appears, read: test compound (0.1% where given) with Phenoxyethanol 0.5%, 7 d (Table 3).
[5] abbreviates: test compound alone (0.1% where given), no preservative (Table 3).
Where [6] appears, read: test compound alone (0.1% where given), no preservative, 7 d (Table 3).
Setting [7] is: 0.1% test compound and 0.5% phenoxyethanol (Table 2).
[8] abbreviates: 0.1% test compound and 0.5% phenoxyethanol, 7 d (Table 2).
Where [9] appears, read: 0.2% test compound and 0.5% phenoxyethanol (Table 2).
Where [10] appears, read: 0.2% test compound and 0.5% phenoxyethanol, 7 d (Table 2).

Some results are limits rather than exact numbers.

In the case of `OCCc1ccccc1` [2-Phenylethanol, reference compound], in assay [1] (preservative 0.5% alone, no test compound (Table 3)), the “Spores/ml after 7 d” value was 4.2 × 10^4 Spores/ml. For the same compound, the Reduction factor in assay [1] (preservative 0.5% alone, no test compound, 7 d (Table 3)) turned out to be 2.5.

For `O=Cc1cc(O)cc(O)c1` [3,5-dihydroxybenzaldehyde], the results for the “Spores/ml after 7 d” value in assay [1] (setting [3]) and in assay [1] (setting [5]) were below 100 Spores/ml and 1 × 10^4 Spores/ml, respectively. Besides, the values for the Reduction factor in assay [1] (setting [4]) and in assay [1] (setting [6]) were above 1040 and 10, respectively.

Regarding `O=Cc1cccc(O)c1` [3-hydroxybenzaldehyde], the “Spores/ml after 7 d” value in assay [1] (setting [7]) is recorded as below 100 Spores/ml. Also, in assay [1] (setting [8]), the Reduction factor is above 737.

Regarding `COc1cccc(C=O)c1` [3-methoxybenzaldehyde], the “Spores/ml after 7 d” value in assay [1] (setting [7]) was below 100 Spores/ml. In assay [1] (setting [8]), the Reduction factor is on record as above 737.

On to `COc1cc(O)ccc1C=O` [4-hydroxy-2-methoxy-benzaldehyde], for which the “Spores/ml after 7 d” value in assay [1] (setting [3]) is given as below 100 Spores/ml; in assay [1] (setting [5]) it was 2.08 × 10^4 Spores/ml. Besides, the Reduction factor is recorded as above 1040 in assay [1] (setting [4]) and 5 in assay [1] (setting [6]).

On to `COc1ccc(C=O)cc1` [4-methoxybenzaldehyde], for which the Reduction factor in assay [2] was 5; in assay [1] (setting [8]), above 737; in assay [1] (setting [10]), above 737; in assay [1] (setting [4]) it was above 1040; in assay [1] (setting [6]) it was 37.1. Further, the Spores/ml in assay [2] is 4.68 × 10^4 Spores/ml. The “Sporicidal effect (reduction of spore counts) in water” value in assay [2] was “No significant reduction of spore counts”; in assay [2] (listed as 4-methoxy-benzaldehyde) it was “no significant sporicidal effect”. Moreover, the “Spores/ml after 7 d” value is reported as below 100 Spores/ml in assay [1] (setting [7]), below 100 Spores/ml in assay [1] (setting [9]), below 100 Spores/ml in assay [1] (setting [3]) and 2.8 × 10^3 Spores/ml in assay [1] (setting [5]). Further, the “Enhancing activity in cream” value in assay [1] (0.1% test compound with phenoxyethanol, complete killing of spores within 7 days) was “excellent enhancing activity”.

Consider `Cc1ccc(C=O)cc1` [4-methylbenzaldehyde], for which the “Spores/ml after 7 d” value in assay [1] (setting [7]) is listed as below 100 Spores/ml. In addition, the Reduction factor in assay [1] (setting [8]) is given as above 737.

As to `C=CCCCCCCCCO` [9-decen-1-ol, reference compound], in assay [2], the Reduction factor is reported as 23, the Spores/ml is 1.1 × 10^4 Spores/ml and the “Sporicidal effect (reduction of spore counts) in water” value is “significant sporicidal effect”. For the same compound, the “Spores/ml after 7 d” value in assay [1] (setting [9]) was 2.44 × 10^4 Spores/ml. Besides, the Reduction factor in assay [1] (setting [10]) turned out to be 2.1. Also, the “Enhancing effect in the cosmetic cream in presence of phenoxyethanol” value in assay [1] is given as “do not show an enhancing effect”.

On to `O=Cc1ccccc1` [Benzaldehyde, reference compound], for which the “Spores/ml after 7 d” value in assay [1] (setting [7]) is reported as below 100 Spores/ml. Further, in assay [1] (setting [8]), the Reduction factor is above 737.

For `CC(C)c1ccc(CO)cc1` [Cuminic alcohol, reference compound], in assay [2], the Reduction factor is below 2 and the Spores/ml was >1.2 × 10^5 Spores/ml.

With `O=Cc1ccc2c(c1)OCO2` [Heliotropine], in assay [1] (setting [7]), the “Spores/ml after 7 d” value is below 100 Spores/ml. The Reduction factor in assay [1] (setting [8]) was above 737.

In the case of `CC(CC=O)CCc1ccccc1` (centres unmarked) [Mefranal, 3-methyl-5-phenylpentanal, reference compound], in assay [2], the Reduction factor is listed as 63, the Spores/ml was 4 × 10^3 Spores/ml and the “Sporicidal effect (reduction of spore counts) in water” value is “significant sporicidal effect”. Further, the “Spores/ml after 7 d” value in assay [1] (setting [9]) is 3.12 × 10^4 Spores/ml. The Reduction factor in assay [1] (setting [10]) was 1.6. For the same compound, the “Enhancing effect in the cosmetic cream in presence of phenoxyethanol” value in assay [1] was “do not show an enhancing effect”.

On to `COc1cc(C=O)ccc1O` [Vanilline], for which the “Spores/ml after 7 d” value in assay [1] (setting [7]) is below 100 Spores/ml; in assay [1] (setting [3]), below 100 Spores/ml; in assay [1] (setting [5]), 1 × 10^4 Spores/ml. For the same compound, the Reduction factor in assay [1] (setting [8]) is listed as above 737; in assay [1] (setting [4]) it was above 1040; in assay [1] (setting [6]), 10.4.

The record behind these values is patent US9700499B2, “Antimicrobial compositions” (GIVAUDAN SA, priority 2005, dated 2017).
